Laboratory results taken from patent US6518262B1, “22R-hydroxycholesta-8, 14-diene derivatives for the inhibition of meiosis” (Akzo Nobel N.V., priority 1999, dated 2003).

Tested on: cumulus enclosed oocytes (CEO)
Experiment: Oocyte assay, agonistic testing, cumulus enclosed oocytes (CEO assay)
Type: cell-based, mice (B6D2-F1, strain C57BL×DBA)
Settings: compound 5 μM, hypoxanthine medium, 22 hours culture, control value in brackets
Excerpt: Oocytes arrested in meiosis contain diffused chromosomes which are surrounded by an intact nuclear envelope known as the germinal vesicle (GV). Upon reinitiation of meiosis by the midcycle gonadotropin surge, the chromosomes recondense and the GV breaks down (GVBD). In vivo, the oocyte is exposed to hypoxanthine (HX), which maintains the oocyte arrested in the meiotic prophase. This meiotic arrest can be mimicked in vitro by addition of hypoxanthine to the culture medium. The agonistic activity of meiosis activating substances is measured as the ability to overcome the hypoxanthine maintained meiotic arrest in denuded oocytes (DO) or cumulus enclosed oocytes (CEO), i.e. as the ability to induce meiotic resumption in vitro.
Ovaries are obtained from immature female mice (B6D2-F1, strain C57BL×DBA). At the age of 19, 20 or 21 days the mice are injected subcutaneously with a single dose of 20 IU follicle stimulating hormone (Humegon, Organon, The Netherlands) in saline.
Forty-eight hours after follicle stimulating hormone injection mice are killed by cervical dislocation. The ovaries are removed, freed of extraneous tissue and placed in a multidish containing 0.5 ml preparation medium at 37° C. L-15 Leibovitz medium (Gibco, pH 7.3±0.1) supplemented with bovine serum albumin (3 mg·ml^−1), L-glutamine (0.23 mM), sodium pyruvate (2 mM) and hypoxanthine (4 mM) is used as preparation medium. […]
The oocyte assay is performed in 3 blocks, each block represents the ovaries of one mouse (randomized block design). […] At t=0 the number of oocytes with intact germinal vesicles (GV) or germinal vesicle break-down (GVBD) is counted under an inverted microscope with differential interference contrast equipment. […] At the end of the culture period the number of oocytes with GV or GVBD per group is counted. For statistical analysis the percentage germinal vesicle breakdown is calculated for each group in one block. These percentages are subjected to arcsin transformation, and differences between control and test compounds are analyzed by an ANOVA test for a randomized block design. […]

CC(C)=CC[C@@H](O)[C@@H](C)[C@H]1CC=C2C3=C(CC[C@@]21C)[C@@]1(C)CC[C@H](O)C(C)(C)[C@@H]1CC3 [Example 2, (3β,5α,20S,22R)-4,4-Dimethylcholesta-8,14,24-triene-3,22-diol]
% GVBD CEO assay exp.: 2(2) %
